Assay results taken from patent US20240398841A1, “BLADDER PERFUSION PHARMACEUTICAL COMPOSITION, PREPARATION METHOD THEREFOR AND APPLICATION THEREOF” (priority 2020, published 2024).
“And” between values parts separate entries of the source, which are not always exact repeats. Equal values may be shown once. Where a name gives a salt, the structure may show the parent alone.

Key:
[1] = test system: bladder in situ tumor (fLuc-MB49 cells); settings: mouse, in vivo
[2] = General formulation study of simple mixtures of epirubicin and imiquimod (stability, solubility versus pH); type: physicochemical
[3] = test system: bladder in situ tumor (fLuc-MB49 cells); test: Combined perfusion of EPI and R837 hydrochloride in different ratios for bladder in situ tumor, fluorescence imaging and survival (Example B4); type: in vivo, mice; settings: for Survival rate: 14th day
[4] = test system: MB49 bladder cancer in situ; test: Pirarubicin (THP)/R837 mixed lyophilized powder in bladder perfusion treatment of bladder cancer, tumor mass (Example G2); type: in vivo, mice; settings: after two bladder perfusions, from tumor mass
Method: Example G2: Application of pirarubicin (THP) used in combination with R837 in the treatment of bladder cancer.
The mice were randomly divided into the following groups:
THP: perfusion of the pirarubicin solution dissolved in 5% glucose solution;
After two times of bladder perfusion treatment, the bladder cancer in the mice was obtained by dissection, and the tumor mass was recorded. […] The Guinness formula q=E(A+B)/(EA+EB−EA*EB) is used to calculate the drug synergy, wherein E(A+B) is the tumor inhibition rate in the compound formulation treatment group, and EA and EB are the tumor inhibition rates when the two components are used respectively.

bladder cancer = settings: TMX-101 gel formulation containing R837, bladder perfusion; cited from earlier work
[5] = 1-9 days, two perfusions; EPI 60 μg, R837 360 μg; compared with blank group
Method: Six mice in each of the four groups were perfused with the same dose of blank ultrapure water (ddH2O), R837 (360 μg), EPI (60 μg) and EPI (60 μg)+R837 (360 μg) for 1 hour, once a week, twice, and the body weight was recorded every other day. […] Next, we used a similar method to evaluate whether there was a usage range for the attenuation effect when EPI and R837 were used in combination in a mass ratio (1:10). Six mice in each of the four groups were perfused with the same dose of blank ultrapure water (ddH2O), R837 (600 μg), EPI (60 μg) and EPI (60 μg)+R837 (600 μg) for 1 hour, and the body weights was recorded every other day.

[6] = test system: MB49 bladder cancer in situ; test: Doxorubicin (ADM)/R848 mixed lyophilized powder in bladder perfusion treatment of bladder tumor, tumor mass (Example G3); type: in vivo, mice; settings: after two bladder perfusions; compound formulation with hydroxypropyl methylcellulose as penetration enhancer
Method: Example G3: Application of doxorubicin (ADM) used in combination with resiquimod (R848) in the treatment of bladder tumor.
The in-situ models of bladder cancer in mice were established by the same method as in Example G1, the mixed lyophilized powder formulation of doxorubicin and […] was prepared for later use, and the mice were randomly divided into groups (Blank: perfusion of 5% glucose solution: ADM: perfusion of the […] solution dissolved in normal saline: R848: perfusion of the resiquimod suspension dispersed in 5% glucose solution: ADM+R848: perfusion of the mixed lyophilized powder formulation of […] and resiquimod dissolved in 5% glucose solution), wherein hydroxypropyl methylcellulose was added as a penetration enhancer component before the compound formulation was used for bladder perfusion treatment. After two times of the bladder perfusion in each group, the bladder cancer in the mice was obtained by dissection, and the tumor mass was recorded.

[7] = test system: bladder in situ tumor (fLuc-MB49 cells); test: Combined perfusion of THP and R837 hydrochloride for bladder in situ tumor, in vivo fluorescence imaging and survival (Example B2); set-up: species or system mice; settings: until 35 days
[8] = Day 0 (before the first perfusion)

Row | Structure (SMILES) | Survival rate [3] [%] | Mean fluorescence intensity of bladder in situ tumor tissue, group Mean [3, 8] | Mean fluorescence intensity of bladder in situ tumor tissue, group Mean ([3]; Day 7) | Mean fluorescence intensity of bladder in situ tumor tissue, group Mean ([3]; Day 14) | tumor inhibition rate [4] [%] | tumor inhibition rate [6] [%] | also measured
1 | CC(C)Cn1cnc2c(N)nc3ccccc3c21 [Sample R837, imiquimod] | 100 | 1.877 10^5 | 5.922 10^5 | 9.287 10^5 | 38.33 |  | tumor fluorescence intensity / tumor inhibition effect [1]: no significant tumor inhibition effect; pH above which imiquimod precipitates from the solution [2]: > 5.0; Mean fluorescence intensity of bladder in situ tumor tissue (single mice) ([3]; Day 7, listed as B4-2): 6.37 10^5 and 5.49 10^5 and 5.35 10^5 and 6.92 10^5 and 6.05 10^5; Mean fluorescence intensity of bladder in situ tumor tissue (single mice) ([3]; Day 14, listed as B4-2): 7.97 10^5 and 10.2 10^5 and 9.04 10^5 and 12.7 10^5 and 7.53 10^5 and 8.28 10^5; safety in clinical trial (bladder cancer): good safety
2 | COc1cccc2c1C(=O)c1c(O)c3c(c(O)c1C2=O)C[C@@](O)(C(=O)CO)C[C@@H]3O[C@H]1C[C@H](N)[C@@H](O)[C@H](C)O1 [EPI, epirubicin hydrochloride] | 67 | 1.957 10^5 | 3.893 10^5 | 10.8 10^5 |  |  | body weights of the mice [5]: significantly lower; Mean fluorescence intensity of bladder in situ tumor tissue (single mice) ([3]; Day 14, listed as B4-3, hydrochloride): 12.8 10^5 and 10.9 10^5 and 8.7 10^5
3 | COc1cccc2c1C(=O)c1c(O)c3c(c(O)c1C2=O)C[C@@](O)(C(=O)CO)C[C@@H]3O[C@H]1C[C@H](N)[C@H](O)[C@H](C)O1 [DOX, doxorubicin hydrochloride] |  |  |  |  |  | 8.6 | 
4 | CCOCc1nc2c(N)nc3ccccc3c2n1CC(C)(C)O [Sample R848, resiquimod] |  |  |  |  |  | 21.8 | 
5 | COc1cccc2c1C(=O)c1c(O)c3c(c(O)c1C2=O)C[C@@](O)(C(=O)CO)C[C@@H]3O[C@H]1C[C@H](N)[C@H](O[C@@H]2CCCCO2)[C@H](C)O1 [THP, pirarubicin hydrochloride] |  |  |  |  | 28.23 |  | Survival rate [7]: 60%
